Results from publication PMC11864979, “First-in-class ultralong-target-residence-time p38α inhibitors as a mitosis-targeted therapy for colorectal cancer” (Nature Cancer, 2025).
Where two headings read alike, the source gives them in different places.

Tests used:
Test in all cases: selectivity profiling in a panel of 340 wild-type kinases (Reaction Biology Europe)
Assay type in all cases: binding
340 wild-type kinases [1] = target: T1, 340 wild-type kinases (Homo sapiens, UniProt Q8TDX7)
T1 construct: purchased Reaction Biology Europe

340 wild-type kinases [2] = target: T2, 340 wild-type kinases (Homo sapiens, UniProt Q13153)
T2 construct: purchased Reaction Biology Europe

340 wild-type kinases [3] = target: T3, 340 wild-type kinases (Homo sapiens, UniProt Q9H2K8)
T3 construct: purchased Reaction Biology Europe
T3 sequence (Q9H2K8 1-898): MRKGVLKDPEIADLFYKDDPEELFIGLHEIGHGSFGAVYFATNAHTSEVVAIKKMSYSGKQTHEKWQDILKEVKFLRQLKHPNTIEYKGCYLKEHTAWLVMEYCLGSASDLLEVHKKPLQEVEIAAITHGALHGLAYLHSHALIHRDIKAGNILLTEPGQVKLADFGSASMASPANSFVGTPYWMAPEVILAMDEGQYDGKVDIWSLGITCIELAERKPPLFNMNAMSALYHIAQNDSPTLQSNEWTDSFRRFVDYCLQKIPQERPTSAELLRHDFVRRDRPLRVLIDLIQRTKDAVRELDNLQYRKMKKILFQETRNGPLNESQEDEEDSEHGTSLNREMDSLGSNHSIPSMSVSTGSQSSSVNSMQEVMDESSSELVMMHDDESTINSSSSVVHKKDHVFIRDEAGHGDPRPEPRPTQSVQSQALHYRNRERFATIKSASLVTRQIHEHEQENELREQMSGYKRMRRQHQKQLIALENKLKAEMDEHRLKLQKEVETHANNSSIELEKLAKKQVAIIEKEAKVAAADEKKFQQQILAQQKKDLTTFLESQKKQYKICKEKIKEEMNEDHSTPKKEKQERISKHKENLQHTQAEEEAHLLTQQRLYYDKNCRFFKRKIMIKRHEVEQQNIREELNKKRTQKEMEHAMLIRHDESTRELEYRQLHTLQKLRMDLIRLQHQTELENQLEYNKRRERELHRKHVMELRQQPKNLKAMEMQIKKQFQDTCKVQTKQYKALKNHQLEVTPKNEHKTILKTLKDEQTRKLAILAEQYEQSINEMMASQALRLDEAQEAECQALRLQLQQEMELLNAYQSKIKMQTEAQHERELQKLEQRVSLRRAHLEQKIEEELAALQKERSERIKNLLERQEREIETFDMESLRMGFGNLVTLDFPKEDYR

340 wild-type kinases [4] = target: T4, 340 wild-type kinases (Homo sapiens, UniProt Q92630)
T4 construct: purchased Reaction Biology Europe
T4 sequence (Q92630 1-601): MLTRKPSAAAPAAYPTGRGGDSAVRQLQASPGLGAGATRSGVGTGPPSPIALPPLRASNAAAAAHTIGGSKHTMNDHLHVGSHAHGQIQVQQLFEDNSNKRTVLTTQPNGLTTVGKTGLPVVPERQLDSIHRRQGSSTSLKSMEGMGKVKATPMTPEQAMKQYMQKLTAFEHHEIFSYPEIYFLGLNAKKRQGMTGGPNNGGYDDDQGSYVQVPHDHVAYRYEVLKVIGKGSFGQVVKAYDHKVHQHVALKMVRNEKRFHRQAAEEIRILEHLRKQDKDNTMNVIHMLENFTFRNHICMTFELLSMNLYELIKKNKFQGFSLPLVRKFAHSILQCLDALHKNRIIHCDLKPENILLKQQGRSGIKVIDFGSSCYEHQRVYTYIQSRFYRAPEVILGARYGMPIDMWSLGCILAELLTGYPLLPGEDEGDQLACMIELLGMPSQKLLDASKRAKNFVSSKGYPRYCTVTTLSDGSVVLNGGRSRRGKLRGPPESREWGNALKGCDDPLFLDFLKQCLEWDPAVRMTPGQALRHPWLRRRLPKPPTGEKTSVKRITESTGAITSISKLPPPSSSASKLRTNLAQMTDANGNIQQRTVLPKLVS

340 wild-type kinases [5] = target: T5, 340 wild-type kinases (Homo sapiens, UniProt Q99759)
T5 construct: purchased Reaction Biology Europe
T5 sequence (Q99759 1-626): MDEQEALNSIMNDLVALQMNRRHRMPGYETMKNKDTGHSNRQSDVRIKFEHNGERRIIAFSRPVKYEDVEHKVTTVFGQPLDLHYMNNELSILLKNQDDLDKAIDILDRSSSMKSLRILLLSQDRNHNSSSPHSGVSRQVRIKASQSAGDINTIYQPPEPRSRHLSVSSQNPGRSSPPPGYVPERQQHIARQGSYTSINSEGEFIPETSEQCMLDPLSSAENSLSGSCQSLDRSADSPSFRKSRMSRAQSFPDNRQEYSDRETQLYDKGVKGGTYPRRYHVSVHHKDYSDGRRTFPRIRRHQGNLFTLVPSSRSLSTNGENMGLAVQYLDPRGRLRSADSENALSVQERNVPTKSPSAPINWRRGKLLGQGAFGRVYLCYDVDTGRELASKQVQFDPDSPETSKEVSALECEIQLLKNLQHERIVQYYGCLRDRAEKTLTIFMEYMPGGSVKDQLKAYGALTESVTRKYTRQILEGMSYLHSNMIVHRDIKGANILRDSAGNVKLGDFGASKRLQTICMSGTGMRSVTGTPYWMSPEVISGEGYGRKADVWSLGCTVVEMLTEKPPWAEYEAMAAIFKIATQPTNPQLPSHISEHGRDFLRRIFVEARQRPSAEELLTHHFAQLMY

T1 sequence (Q8TDX7 whole entry): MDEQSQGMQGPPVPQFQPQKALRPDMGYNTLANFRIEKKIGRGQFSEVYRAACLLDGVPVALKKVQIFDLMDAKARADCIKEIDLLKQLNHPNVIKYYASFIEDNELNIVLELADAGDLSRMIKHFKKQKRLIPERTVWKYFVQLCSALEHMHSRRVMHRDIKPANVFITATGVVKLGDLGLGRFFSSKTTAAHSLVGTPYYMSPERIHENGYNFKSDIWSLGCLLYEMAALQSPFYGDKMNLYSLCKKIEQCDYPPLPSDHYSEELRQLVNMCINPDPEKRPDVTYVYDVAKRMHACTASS
T2 sequence (Q13153 whole entry): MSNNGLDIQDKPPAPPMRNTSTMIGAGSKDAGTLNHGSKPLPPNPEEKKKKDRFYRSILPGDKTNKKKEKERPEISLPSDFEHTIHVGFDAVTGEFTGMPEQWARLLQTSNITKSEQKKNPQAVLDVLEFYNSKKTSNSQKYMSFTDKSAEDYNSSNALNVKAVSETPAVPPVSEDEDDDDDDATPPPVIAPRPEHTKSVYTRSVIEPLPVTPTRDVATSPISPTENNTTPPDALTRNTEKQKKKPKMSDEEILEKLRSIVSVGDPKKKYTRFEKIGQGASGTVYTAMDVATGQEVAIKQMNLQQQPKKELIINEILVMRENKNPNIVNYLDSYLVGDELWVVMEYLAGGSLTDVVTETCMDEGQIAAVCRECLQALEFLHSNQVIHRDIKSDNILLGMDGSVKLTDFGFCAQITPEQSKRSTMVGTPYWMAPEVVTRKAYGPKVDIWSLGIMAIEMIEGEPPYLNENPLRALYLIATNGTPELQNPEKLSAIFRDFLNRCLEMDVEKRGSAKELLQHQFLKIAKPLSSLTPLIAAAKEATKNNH

## CNC(=O)c1ccc2c(c1)C(=O)c1ccc(Nc3ccc(F)c(NC(=O)C4CC4)c3)cc1CC2 [Compound 2015]
340 wild-type kinases [1]; 0.2 µM 2015, read-out: NEK7 residual activity
  remaining activity at 0.2 µM: 119%
340 wild-type kinases [1]; 1 µM 2015, read-out: NEK7 residual activity
  remaining activity at 1 µM: 110%
340 wild-type kinases [1]; NEK7, 0.2 µM, read-out: residual activity
  remaining activity at 0.2 µM: 119%
340 wild-type kinases [2]; 0.2 µM 2015, read-out: PAK1 residual activity
  remaining activity at 0.2 µM: 94.7%
340 wild-type kinases [2]; 1 µM 2015, read-out: PAK1 residual activity
  remaining activity at 1 µM: 79.5%
340 wild-type kinases [2]; PAK1, 0.2 µM, read-out: residual activity
  remaining activity at 0.2 µM: 94.7%
340 wild-type kinases [2]; PAK1, 1 µM, read-out: residual activity
  remaining activity at 1 µM: 79.5%
340 wild-type kinases [3]; 0.2 µM 2015, read-out: TAOK3 residual activity
  remaining activity at 0.2 µM: 101%
340 wild-type kinases [3]; 1 µM 2015, read-out: TAOK3 residual activity
  remaining activity at 1 µM: 98.6%
340 wild-type kinases [3]; TAOK3, 0.2 µM, read-out: residual activity
  remaining activity at 0.2 µM: 101%
340 wild-type kinases [3]; TAOK3, 1 µM, read-out: residual activity
  remaining activity at 1 µM: 98.6%
340 wild-type kinases [4]; 0.2 µM 2015, read-out: DYRK2 residual activity
  remaining activity at 0.2 µM: 95.7%
340 wild-type kinases [4]; 1 µM 2015, read-out: DYRK2 residual activity
  remaining activity at 1 µM: 94.2%
340 wild-type kinases [4]; DYRK2, 0.2 µM, read-out: residual activity
  remaining activity at 0.2 µM: 95.7%
340 wild-type kinases [4]; DYRK2, 1 µM, read-out: residual activity
  remaining activity at 1 µM: 94.2%
340 wild-type kinases [5]; 0.2 µM 2015, read-out: MEKK3 residual activity
  remaining activity at 0.2 µM: 105%
340 wild-type kinases [5]; 1 µM 2015, read-out: MEKK3 residual activity
  remaining activity at 1 µM: 101%
340 wild-type kinases [5]; MEKK3, 0.2 µM, read-out: residual activity
  remaining activity at 0.2 µM: 105%
340 wild-type kinases [5]; MEKK3, 1 µM, read-out: residual activity
  remaining activity at 1 µM: 101%
